{
  "source": "patent US20110152094A1",
  "about": "“Herbicidal compositions comprising flufenacet” (Bayer CropScience AG, priority 2009, published 2011)",
  "key": {"[1]": {"test_system": "MATCH resistant (Matricaria chamomilla)", "experiment": "Greenhouse trial, PE application on resistant biotypes (test method 8)", "type": "in vivo", "conditions": "resistant biotype, g of AS/ha: (A) 90, (B) 1200, (A)+(B) 90 + 1200, (C) 10", "method": "(§1) In the standard design of the test, seeds of various broad-leaved weed and weed grass biotypes (origins) were sown in a 8-13 cm diameter pot filled with natural soil of a standard field soil (loamy silt; non-sterile) and covered with a covering soil layer of about 1 cm. The pots were then cultivated in a greenhouse (12-16 h of light, temperature day 20-22° C., night 15-18° C.) until the time of application. The pots were treated on a laboratory track sprayer with spray liquors comprising the compositions according to the invention, mixtures of the prior art or components used individually. Application of the active compounds or active compound combinations formulated as WG, WP, EC or otherwise was carried out at the appropriate growth stages of the plants. The application rate for the spray application was 100-600 l of water/ha. After the treatment, the plants were returned to the greenhouses.\n(§2) About 3 weeks after the application, the soil action or/and foliar action was assessed visually according to a scale of 0-100% in comparison to an untreated comparative group: 0%=no noticeable effect compared to the untreated comparative group; 100%=full effect compared to the untreated comparative group.\n(§3) (notes: the term “seeds” also includes vegetative propagation forms such as, for example, rhizome pieces; abbreviations used: h light=hours of illumination, g of AS/ha=gram of active substance per hectare, l/ha=liter per hectare, S=sensitive, R=resistant) • 1. Pre-emergence action against weeds: seeds of various broad-leaved weed and weed grass biotypes (origins) were sown in a 8-13 cm diameter pot filled with natural soil of a standard field soil (loamy silt; non-sterile) and covered with a covering soil layer of about 1 cm. The pots were then cultivated in a greenhouse (12-16 h of light, temperature day 20-22° C., night 15-18° C.) until the time of application. The pots were treated at the BBCH stage 00-10 of the seeds/plants on a laboratory track sprayer with spray liquors comprising the compositions according to the invention, mixtures or components used individually, as WG, WP, EC or other formulations. The application rate for the spray application was 100-600 l of water/ha. After the treatment, the plants were returned to the greenhouses and, when required, treated with fertilizer and watered. • 2. Post-emergence action against weeds: seeds of various broad-leaved weed and weed grass biotypes (origins) were sown in a 8-13 cm diameter pot filled with natural soil of a standard field soil (loamy silt; non-sterile) and covered with a covering soil layer of about 1 cm. The pots were then cultivated in a greenhouse (12-16 h of light, temperature day 20-22° C., night 15-18° C.) until the time of application. The pots were treated at various BBCH stages between 11-25 of the seeds/plants, i.e. generally between two to three weeks after the start of the cultivation, on a laboratory track sprayer with spray liquors comprising the compositions according to the invention, mixtures or components used individually, as WG, WP, EC or other formulations. The application rate for the spray application was 100-600 l of water/ha. After the treatment, the plants were returned to the greenhouses and, when required, treated with fertilizer and watered. • 3. Selective pre-emergence action: seeds of various crop species (origins) were sown in a 8-13 cm diameter pot filled with natural soil of a standard field soil (loamy silt; non-sterile) and covered with a covering soil layer of about 1 cm. The pots were then cultivated in a greenhouse (12-16 h of light, temperature day 20-22° C., night 15-18° C.) until the time of application. The pots were treated at the BBCH stage 00-10 of the seeds/plants on a laboratory track sprayer with spray liquors comprising the compositions according to the invention, mixtures or components used individually, as WG, WP, EC or other formulations. The application rate for the spray application was 100-600 l of water/ha. […]"}, "[2]": {"test_system": "MATCH sensitive (Matricaria chamomilla)", "experiment": "Greenhouse trial, PE application on resistant biotypes (test method 8)", "type": "in vivo", "conditions": "sensitive biotype, g of AS/ha: (A) 90, (B) 1200, (A)+(B) 90 + 1200, (C) 10", "method": "as §1, §2, §3"}},
  "data": [
    {"smiles": "COc1nc(C)nc(NC(=O)NS(=O)(=O)c2cc(I)ccc2C(=O)O)n1", "note": "[(C) iodosulfuron, iodosulfuron]", "values": [
      {"measurement": "activity MATCH resistant (visual assessment, scale 0-100% vs untreated)", "setting": "[1]", "result": 60, "unit": "%"},
      {"measurement": "activity MATCH sensitive (visual assessment, scale 0-100% vs untreated)", "setting": "[2]", "result": 100, "unit": "%"}
    ]}
  ]
}
